Experimental data: PMC12123601, “Light-Induced, Lysine-Targeting Irreversible Covalent Inhibition of the Human Oxygen Sensing Hydroxylase Factor Inhibiting HIF (FIH)” (Journal of the American Chemical Society, 2025)

How the values were obtained:
[1] = biological target: FIH (Homo sapiens, UniProt Q9NWT6); assay: O-phenylenediamine (OPD) 2OG derivatization turnover assay (remaining 2OG in FIH hydroxylation system); assay type: biochemical; design: Concentration of remaining 2OG: unit: µM
Method: To explore whether the covalent inhibitor can effectively and sustainably prevent the hydroxylation process catalyzed by FIH, the inhibitory activities against FIH were evaluated using the fluorescent O-phenylenediamine (OPD) 2OG derivatization turnover assay (Figure S9).
Figure S9. Schematic of the O-phenylenediamine (OPD) fluorescent derivative assay6. The assay monitors depletion of 2OG.
(1 picture or pasted object on this page, not shown here) […]
pET28a vectors encoding for full-length FIH with an N-terminal His6 tag or for FIH (K106A) with an N-terminal His6 tag were purchased from Nanjing Zoonbio Biotechnology. Both the FIHWT and FIHK106A protein were expressed from the respective plasmid in Escherichia coli BL21 at 20 °C for 16 h. E. coli cells were lysed and the lysate were clarified by centrifugation. His6-tagged FIHWT or FIHK106A was purified on a HisTrap affinity column (GE Healthcare) by elution with an imidazole gradient. The final purified proteins were stored in PBS buffer. […]
Ki = I50 / [1 + ([L]50 + [P]0)/Kd] […]
3.2 O-Phenylenediamine (OPD) fluorescent derivative assay
Assays were carried out by mixing 1 mM DTT, 0.6 mg/mL of catalase, 200 μM 2-OG, 50 mM Hepes, 200 μM HIF-1α (788-807), and inhibitors at pH 7.0 to a final volume of 44 μL and incubated at 37 °C for 5 min. At the same time, FIH enzyme and iron (prepared as 200 mM stock in 20 mM HCl and diluted with water) were mixed at room temperature for 3 min. […] The reaction was stopped by the addition of 100 μL of 0.5 M HCl. After adding 50 μL of 10 mg/mL OPD in 0.5 M HCl and heating at 95 °C for 10 min, the derivatization was achieved. Then, 50 μL of the mixture centrifugated for 5 min was made basic by adding 30 μL of 1.25 M NaOH, and then fluorescence was detected by SPARK Multi-Mode Microplate Reader (Tecan). […]
Crystals were cryo -protected using mother liquor supplemented with 25%v/v glycerol before manual loop cryo -cooling in liquid N2.
Data for ligand -bound protein complexes were from single crystals at 100 K using Diamond Light Source (UK) beamlines. The FIH crystal structures were determined by molecular replacement (MR) using the AutoMR (PHASER) subroutine in PHENIX (version 1.18.2) based on the PDB ID: 1H2K crystal structure .

[2] = tested on: EGLN3 mRNA level in Hep3B cells; assay: qRT-PCR of FIH-dependent HIF target gene EGLN3 in Hep3B cells; assay type: cell-based
Method: 5 […] sustainably engages with FIH and regulates the expression of FIH-dependent HIF target gene EGLN3 in Hep3B cells. (A) The CETSA assay was carried out with Hep3B cells grown in the presence of NBA-ZG-2291 (50 μM) for 12–48 h after 30 min of light activation (365 nm, 16 W). The intensity of the bands for grayscale analysis was referenced to the starting temperature (37 °C). α-Actinin was the sample loading control. n = 2; mean ± SD. […] (E) Correlation heatmap of the NBA-ZG-2291-treated group and the siFIH group by RNA-sequencing analysis. […] The relative fold change with respect to DMSO treated sample is shown (with normalization to HPRT gene levels). Mean ± SEM; n = 3. (G) TG level of NBA-ZG-2291-treated 3T3-L1-derived adipocytes. Mean ± SEM; n = 3. (H) Representative Oil Red O-stained images of the control, ZG-2291-treated, and NBA-ZG-2291-treated 3T3-L1-derived adipocytes. Scale Bar, 30 μm. P values were analyzed by two-way ANOVA comparing with the vehicle/control group (*, P < 0.05; **, P < 0.01; ***, P < 0.001, ****, P < 0.0001). See Methods (Quantitative PCR Analysis of Gene Expression) for assay details. TEXT PRINTED IN THE PICTURE: (A) no label printed: FIH: ΔTm (°C): 8.87 (Incubation time: 12 h); FIH: ΔTm (°C): 9.28 (Incubation time: 24 h); FIH: ΔTm (°C): 8.86 (Incubation time: 48 h); α-actinin: ΔTm (°C): 0.30 (Incubation time: 12 h); α-actinin: ΔTm (°C): -0.03 (Incubation time: 24 h); α-actinin: ΔTm (°C): -0.45 (Incubation time: 48 h) DOUBTS OF THE COPYIST ABOUT THIS PICTURE: Panel A: the picture prints no substance label with the ΔTm tables, so the label is left empty
The Egl-9 family hypoxia-inducible factor 3 gene (EGLN3, PHD3) is a HIF target gene, expression of which is negatively regulated by FIH catalysis, , potentially in a context-dependent manner. We therefore investigated the effect of the light-induced covalent inhibitor NBA-ZG-2291 on EGLN3 expression levels in Hep3B cells using ZG-2291 as a positive inhibition control. […] At a concentration of 10 μM, NBA-ZG-2291 increased EGLN3 expression by ∼2.5-fold with irradiation.
We also compared the time-dependent regulation of NBA-ZG-2291 on the HIF pathway with that of ZG-2291. […] This may result from the limited action time of the reversible inhibitor, perhaps due to its metabolism. The overall results provide strong evidence that the light-induced, lysine-targeting irreversible covalent inhibitor NBA-ZG-2291 can effectively and sustainably engage FIH, leading to the upregulation of FIH-dependent HIF target gene expression.

Chain of FIH (Q9NWT6 whole entry): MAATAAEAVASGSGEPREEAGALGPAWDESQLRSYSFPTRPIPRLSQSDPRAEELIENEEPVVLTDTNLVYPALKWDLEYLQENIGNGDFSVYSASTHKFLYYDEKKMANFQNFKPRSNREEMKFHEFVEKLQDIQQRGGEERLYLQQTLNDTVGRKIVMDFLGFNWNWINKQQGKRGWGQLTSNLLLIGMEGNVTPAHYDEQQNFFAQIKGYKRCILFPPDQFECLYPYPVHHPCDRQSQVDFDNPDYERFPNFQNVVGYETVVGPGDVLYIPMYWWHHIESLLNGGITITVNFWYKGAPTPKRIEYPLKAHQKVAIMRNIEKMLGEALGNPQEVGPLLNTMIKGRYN

- Concentration of remaining 2OG ([1]; inhibitor 0.14 μM, incubation 0 min, 200 μM 2-OG at start): 200.0
- Concentration of remaining 2OG ([1]; inhibitor 0.14 μM, incubation 15 min): 182.9
- Concentration of remaining 2OG ([1]; inhibitor 0.14 μM, incubation 30 min): 173.3
- Concentration of remaining 2OG ([1]; inhibitor 0.14 μM, incubation 1 h): 163.0
- Concentration of remaining 2OG ([1]; inhibitor 0.14 μM, incubation 4 h): 140.5
- Concentration of remaining 2OG ([1]; inhibitor 0.41 μM, incubation 0 min, 200 μM 2-OG at start): 200.0
- Concentration of remaining 2OG ([1]; inhibitor 0.41 μM, incubation 15 min): 184.2
- Concentration of remaining 2OG ([1]; inhibitor 0.41 μM, incubation 30 min): 176.4
- Concentration of remaining 2OG ([1]; inhibitor 0.41 μM, incubation 1 h): 162.3
- Concentration of remaining 2OG ([1]; inhibitor 0.41 μM, incubation 4 h): 153.7
- Concentration of remaining 2OG ([1]; inhibitor 1.23 μM, incubation 0 min, 200 μM 2-OG at start): 200.0
- Concentration of remaining 2OG ([1]; inhibitor 1.23 μM, incubation 15 min): 190.8
- Concentration of remaining 2OG ([1]; inhibitor 1.23 μM, incubation 30 min): 184.4
- Concentration of remaining 2OG ([1]; inhibitor 1.23 μM, incubation 1 h): 172.8
- Concentration of remaining 2OG ([1]; inhibitor 1.23 μM, incubation 4 h): 159.4
- Concentration of remaining 2OG ([1]; inhibitor 3.70 μM, incubation 0 min, 200 μM 2-OG at start): 200.0
- Concentration of remaining 2OG ([1]; inhibitor 3.70 μM, incubation 15 min): 192.8
- Concentration of remaining 2OG ([1]; inhibitor 3.70 μM, incubation 30 min): 190.8
- Concentration of remaining 2OG ([1]; inhibitor 3.70 μM, incubation 1 h): 181.0
- Concentration of remaining 2OG ([1]; inhibitor 3.70 μM, incubation 4 h): 167.9
- Concentration of remaining 2OG ([1]; inhibitor 11.1 μM, incubation 0 min, 200 μM 2-OG at start): 200.0
- Concentration of remaining 2OG ([1]; inhibitor 11.1 μM, incubation 15 min): 195.1
- Concentration of remaining 2OG ([1]; inhibitor 11.1 μM, incubation 30 min): 194.6
- Concentration of remaining 2OG ([1]; inhibitor 11.1 μM, incubation 1 h): 184.1
- Concentration of remaining 2OG ([1]; inhibitor 11.1 μM, incubation 4 h): 175.9
- Concentration of remaining 2OG ([1]; inhibitor 33.3 μM, incubation 0 min, 200 μM 2-OG at start): 200.0
- Concentration of remaining 2OG ([1]; inhibitor 33.3 μM, incubation 15 min): 195.6
- Concentration of remaining 2OG ([1]; inhibitor 33.3 μM, incubation 30 min): 195.3
- Concentration of remaining 2OG ([1]; inhibitor 33.3 μM, incubation 1 h): 189.4
- Concentration of remaining 2OG ([1]; inhibitor 33.3 μM, incubation 4 h): 181.4
- Concentration of remaining 2OG ([1]; inhibitor 100 μM, incubation 0 min, 200 μM 2-OG at start): 200.0
- Concentration of remaining 2OG ([1]; inhibitor 100 μM, incubation 15 min): 199.4
- Concentration of remaining 2OG ([1]; inhibitor 100 μM, incubation 30 min): 197.3
- Concentration of remaining 2OG ([1]; inhibitor 100 μM, incubation 1 h): 193.2
- Concentration of remaining 2OG ([1]; inhibitor 100 μM, incubation 4 h): 186.6
- Concentration of remaining 2OG ([1]; inhibitor 300 μM, incubation 0 min, 200 μM 2-OG at start): 200.0
- Concentration of remaining 2OG ([1]; inhibitor 300 μM, incubation 15 min): 200.0
- Concentration of remaining 2OG ([1]; inhibitor 300 μM, incubation 30 min): 199.1
- Concentration of remaining 2OG ([1]; inhibitor 300 μM, incubation 1 h): 196.6
- Concentration of remaining 2OG ([1]; inhibitor 300 μM, incubation 4 h): 193.3
Compound: O=C(O)CNC(=O)c1ncc(-c2cc(-c3cccc(Cl)c3)no2)cc1O [ZG-2291, reference compound]
- Effect of irradiation on EGLN3 expression [2]: not affected by irradiation
- Upregulation of EGLN3 mRNA level ([2]; 20 μM, absence of irradiation): ~2.2 fold
- EGLN3 mRNA levels versus DMSO ([2]; after 16 h treatment): no significant difference compared to the negative control
